The record followed here is patent US20260062387A1, “SALT-INDUCIBLE KINASE INHIBITOR COMPOUND AND PHARMACEUTICAL COMPOSITION INCLUDING THE SAME” (MITSUBISHI TANABE PHARMA CORPORATION, priority 2023, published 2026).

Assay type in all cases: biochemical
The target in experiment [1] is GST-tagged SIK2 (Homo sapiens (Human), UniProt Q9H0K1). As to the kind of experiment: SIK2 inhibition test (ADP-Glo Max Assay). As to conditions: enzyme 3 nM, AMARA Peptide 200 μM, ATP 1 mM, 2 hours room temperature. In short, it runs like this: (§1)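 GST-tagged human SIK1, SIK2 and SIK3 at 20 nM, 3 nM and 100 nM final in Tris pH 7.5 buffer, with AMARA peptide (200 μM for SIK1/SIK2, 100 μM for SIK3), 1 mM ATP and 5 mM MgCl2. Reaction ran 2 h at room temperature. ADP read by ADP-Glo Max luminescence, and IC50 fitted from 16 concentrations.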
For orientation: ADP-Glo first removes unused ATP, then detects ADP through luciferase.

Experiment [2] concerns the target GST-tagged SIK3 (Homo sapiens (Human), UniProt Q9Y2K2). As to the kind of experiment: SIK3 inhibition test (ADP-Glo Max Assay). The following applies: enzyme 100 nM, AMARA Peptide 100 μM, ATP 1 mM, 2 hours room temperature. In outline: as §1
In experiment [3] the target is GST-tagged SIK1 (Homo sapiens (Human), UniProt P57059). Kind of experiment: SIK1 inhibition test (ADP-Glo Max Assay). The following applies: enzyme 20 nM, AMARA Peptide 200 μM, ATP 1 mM, 2 hours room temperature. In outline:
as §1

Sequence of GST-tagged SIK3 (Q9Y2K2 whole entry): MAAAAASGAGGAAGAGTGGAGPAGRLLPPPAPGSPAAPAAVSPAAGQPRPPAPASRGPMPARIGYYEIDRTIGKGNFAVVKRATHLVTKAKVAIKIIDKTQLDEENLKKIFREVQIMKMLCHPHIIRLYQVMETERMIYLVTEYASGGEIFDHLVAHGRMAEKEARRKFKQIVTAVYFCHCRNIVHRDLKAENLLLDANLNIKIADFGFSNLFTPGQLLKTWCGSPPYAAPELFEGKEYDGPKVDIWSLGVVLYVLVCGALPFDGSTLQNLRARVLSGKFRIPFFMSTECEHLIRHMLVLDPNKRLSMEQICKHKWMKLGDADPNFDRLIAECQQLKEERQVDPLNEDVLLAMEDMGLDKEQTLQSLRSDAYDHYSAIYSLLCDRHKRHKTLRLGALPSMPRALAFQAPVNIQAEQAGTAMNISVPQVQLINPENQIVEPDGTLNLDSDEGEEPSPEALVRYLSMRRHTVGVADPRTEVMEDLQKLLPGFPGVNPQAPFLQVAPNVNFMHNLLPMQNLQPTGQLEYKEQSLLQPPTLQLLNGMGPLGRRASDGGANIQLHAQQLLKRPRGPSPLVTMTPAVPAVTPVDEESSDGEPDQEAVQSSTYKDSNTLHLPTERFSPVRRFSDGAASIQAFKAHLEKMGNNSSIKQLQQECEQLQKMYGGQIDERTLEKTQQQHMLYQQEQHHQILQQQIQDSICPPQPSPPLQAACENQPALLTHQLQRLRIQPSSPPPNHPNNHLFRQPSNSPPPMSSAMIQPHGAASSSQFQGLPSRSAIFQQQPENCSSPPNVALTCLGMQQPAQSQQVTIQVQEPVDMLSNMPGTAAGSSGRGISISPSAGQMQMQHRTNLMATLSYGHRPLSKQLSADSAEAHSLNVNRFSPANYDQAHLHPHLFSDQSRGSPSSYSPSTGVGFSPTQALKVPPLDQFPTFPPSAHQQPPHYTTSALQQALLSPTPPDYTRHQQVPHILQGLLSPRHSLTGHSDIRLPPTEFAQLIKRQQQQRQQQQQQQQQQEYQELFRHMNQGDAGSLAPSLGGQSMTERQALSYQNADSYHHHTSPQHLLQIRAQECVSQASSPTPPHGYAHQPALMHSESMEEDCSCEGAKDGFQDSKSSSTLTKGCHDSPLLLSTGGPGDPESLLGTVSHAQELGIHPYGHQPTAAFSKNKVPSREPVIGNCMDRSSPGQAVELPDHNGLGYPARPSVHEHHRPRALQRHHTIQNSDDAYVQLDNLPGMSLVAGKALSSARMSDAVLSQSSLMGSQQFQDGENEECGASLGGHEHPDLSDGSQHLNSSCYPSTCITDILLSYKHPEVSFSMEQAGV
Sequence of GST-tagged SIK1 (P57059 whole entry): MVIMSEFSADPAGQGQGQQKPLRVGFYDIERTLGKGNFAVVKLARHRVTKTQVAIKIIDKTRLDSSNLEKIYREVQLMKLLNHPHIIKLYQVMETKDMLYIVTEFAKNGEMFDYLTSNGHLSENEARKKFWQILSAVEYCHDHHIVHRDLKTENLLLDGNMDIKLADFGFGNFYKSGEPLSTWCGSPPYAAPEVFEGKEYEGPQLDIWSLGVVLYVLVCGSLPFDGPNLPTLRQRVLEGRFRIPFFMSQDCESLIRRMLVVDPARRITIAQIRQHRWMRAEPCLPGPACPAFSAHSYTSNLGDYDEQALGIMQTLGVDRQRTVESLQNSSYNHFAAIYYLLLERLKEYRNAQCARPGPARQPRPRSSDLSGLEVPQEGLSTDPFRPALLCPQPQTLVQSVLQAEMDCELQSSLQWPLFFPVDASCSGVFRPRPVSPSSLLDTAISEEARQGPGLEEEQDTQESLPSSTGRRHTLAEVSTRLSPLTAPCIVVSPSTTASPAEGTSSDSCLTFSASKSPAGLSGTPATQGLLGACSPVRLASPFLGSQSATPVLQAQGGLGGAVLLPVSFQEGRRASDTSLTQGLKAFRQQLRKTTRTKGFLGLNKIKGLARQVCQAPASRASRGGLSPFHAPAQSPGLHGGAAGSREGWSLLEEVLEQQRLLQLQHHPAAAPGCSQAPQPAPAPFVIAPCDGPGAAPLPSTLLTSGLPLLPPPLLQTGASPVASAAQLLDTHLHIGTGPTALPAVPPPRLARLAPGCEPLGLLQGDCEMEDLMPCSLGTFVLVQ
Sequence of GST-tagged SIK2 (Q9H0K1 whole entry): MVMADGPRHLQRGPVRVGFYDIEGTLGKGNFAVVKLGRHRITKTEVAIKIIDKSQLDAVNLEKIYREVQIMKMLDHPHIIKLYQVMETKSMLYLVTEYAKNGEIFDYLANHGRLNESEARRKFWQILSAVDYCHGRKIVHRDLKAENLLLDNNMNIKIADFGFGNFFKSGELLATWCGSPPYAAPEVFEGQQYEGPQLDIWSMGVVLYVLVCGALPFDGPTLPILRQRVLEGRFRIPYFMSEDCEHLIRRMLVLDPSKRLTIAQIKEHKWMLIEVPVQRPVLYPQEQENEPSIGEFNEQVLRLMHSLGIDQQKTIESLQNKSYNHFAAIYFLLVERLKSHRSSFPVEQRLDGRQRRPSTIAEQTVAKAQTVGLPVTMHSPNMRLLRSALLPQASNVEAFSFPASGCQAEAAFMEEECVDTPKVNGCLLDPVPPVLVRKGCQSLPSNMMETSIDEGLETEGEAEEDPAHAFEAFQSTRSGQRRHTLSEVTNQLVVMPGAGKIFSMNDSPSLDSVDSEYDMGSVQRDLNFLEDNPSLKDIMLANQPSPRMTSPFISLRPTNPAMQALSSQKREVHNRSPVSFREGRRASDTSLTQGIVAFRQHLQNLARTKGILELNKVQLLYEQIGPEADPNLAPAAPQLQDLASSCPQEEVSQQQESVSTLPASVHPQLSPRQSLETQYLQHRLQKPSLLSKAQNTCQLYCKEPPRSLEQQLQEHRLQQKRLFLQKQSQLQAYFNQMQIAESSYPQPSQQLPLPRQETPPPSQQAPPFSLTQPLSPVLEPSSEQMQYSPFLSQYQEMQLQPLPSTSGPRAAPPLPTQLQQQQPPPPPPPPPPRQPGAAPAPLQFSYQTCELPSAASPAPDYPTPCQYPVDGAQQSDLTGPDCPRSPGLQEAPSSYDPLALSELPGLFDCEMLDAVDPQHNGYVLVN

The term IC50 denotes the concentration at which inhibition is half-maximal. A lower IC50 goes with greater potency in that assay. Take `COc1cc(-c2c3c(OCc4cncc(F)c4)cc(-c4cnn(C)c4)cc3nn2C)cc(OC(F)F)c1C(=O)N1CC(O)(C(F)(F)F)C1` [Example 103, [2-(difluoromethoxy)-4-[4-[(5-fluoropyridin-3-yl)methoxy]-2-methyl-6-(1-methylpyrazol-4-yl)indazol-3-yl]-6-methoxyphenyl]-[3-hydroxy-3-(trifluoromethyl)azetidin-1-yl]methanone]: the half-inhibitory concentration (IC50) in experiment [1] came out at 1.6 nM; in experiment [2], 4.8 nM; in experiment [3] it was 4.4 nM.

Take `COc1cc(-c2c3c(OCc4cnn(C)c4)cc(-c4cnn(C)c4)cc3nn2C)cc(OC(F)F)c1C(=O)N1CC(O)(C(F)(F)F)C1` [Example 52, [2-(difluoromethoxy)-6-methoxy-4-[2-methyl-6-(1-methylpyrazol-4-yl)-4-[(1-methylpyrazol-4-yl)methoxy]indazol-3-yl]phenyl]-[3-hydroxy-3-(trifluoromethyl)azetidin-1-yl]methanone]: the IC50 was 6 nM in experiment [1], 9.2 nM in experiment [2] and 6.2 nM in experiment [3].

On to `COc1cc(-c2c3c(C#N)cc(-c4cnn(C)c4)cc3nn2C)cc(OC(F)F)c1C(=O)NCC1CC1(F)F` (stereo not drawn) [Example 10], for which the 50% inhibitory concentration (IC50) in experiment [1] came out at 7.3 nM; in experiment [2], 6.3 nM; in experiment [3], 13.8 nM.

In the case of `COc1cc(-c2c3c(C#N)cc(-c4cn[nH]c4)cc3nn2C)cc(OC(F)F)c1C(=O)N[C@@H]1CC1(F)F` [Example 148, 4-[4-cyano-2-methyl-6-(1H-pyrazol-4-yl)indazol-3-yl]-N-[(1R)-2,2-difluorocyclopropyl]-2-(difluoromethoxy)-6-methoxybenzamide], the figures for the IC50 in experiment [1], in experiment [2] and in experiment [3] were 1.3 nM, 1.1 nM and 6 nM, respectively.

As for `COc1cc(-c2c3c(C(F)F)cc(-c4cnn(C)c4)cc3nn2C)cc(OC(F)F)c1C(N)=O` [Example 87, 2-(difluoromethoxy)-4-[4-(difluoromethyl)-2-methyl-6-(1-methylpyrazol-4-yl)indazol-3-yl]-6-methoxybenzamide], the figures for the concentration for half-maximal inhibition (IC50) in experiment [1], in experiment [2] and in experiment [3] were 14.6 nM, 4.3 nM and 18.5 nM, respectively.

Take `COCCn1cc(-c2cc(OC(F)F)c3c(-c4cc(OC)c(C(N)=O)c(OC(F)F)c4)n(C)nc3c2)cn1` [Example 154, 2-(difluoromethoxy)-4-[4-(difluoromethoxy)-6-[1-(2-methoxyethyl)pyrazol-4-yl]-2-methylindazol-3-yl]-6-methoxybenzamide]: the half-inhibitory concentration (IC50) in experiment [1] is 1.2 nM; in experiment [2], 9.5 nM; in experiment [3] it was 7.6 nM.

`COc1cc(-c2c3c(C#N)cc(-c4cnn(CC5CCCO5)c4)cc3nn2C)cc(OC(F)F)c1C(=O)NCC1(F)CC1` (stereo not drawn) [Example 79, 4-[4-cyano-2-methyl-6-[1-(oxolan-2-ylmethyl)pyrazol-4-yl]indazol-3-yl]-2-(difluoromethoxy)-N-[(1-fluorocyclopropyl)methyl]-6-methoxybenzamide]: the values for the concentration for half-maximal inhibition (IC50) in experiment [1], in experiment [2] and in experiment [3] were 6.8 nM, 8.1 nM and 12.5 nM, respectively.

On to `COc1cc(-c2c3c(C#N)cc(-c4cnn(CC(=O)N5CC(F)(F)C5)c4)cc3nn2C)cc(OC(F)F)c1C(=O)NCC1(F)CC1` [Example 99, 4-[4-cyano-6-[1-[2-(3,3-difluoroazetidin-1-yl)-2-oxoethyl]pyrazol-4-yl]-2-methylindazol-3-yl]-2-(difluoromethoxy)-N-[(1-fluorocyclopropyl)methyl]-6-methoxybenzamide], for which the IC50 in experiment [1] is 5 nM; in experiment [2] it was 4.9 nM; in experiment [3], 19.2 nM.

With `CCOc1cc(-c2cnn(C)c2)cc2nn(C)c(-c3cc(OC)c4c(c3)[C@@H](C)CNC4=O)c12` (single isomer, unassigned) [Example 163], the half-inhibitory concentration (IC50) stood at 1.4 nM in experiment [1], 11.6 nM in experiment [2] and 5.1 nM in experiment [3].

As for `COc1cc(-c2c3c(OC(F)F)cc(-c4cnn(C)c4)cc3nn2C)cc(OC(F)F)c1C(=O)N1CC(O)(C(F)(F)F)C1` [Example 14, [2-(difluoromethoxy)-4-[4-(difluoromethoxy)-2-methyl-6-(1-methylpyrazol-4-yl)indazol-3-yl]-6-methoxyphenyl]-[3-hydroxy-3-(trifluoromethyl)azetidin-1-yl]methanone], the IC50 was 8.8 nM in experiment [1], 2.4 nM in experiment [2] and 3.6 nM in experiment [3].

In the case of `Cn1cc(-c2cc(C#N)c3c(-c4ccc(C(=O)N[C@@H]5CC5(F)F)c(OC(F)F)c4)n(C)nc3c2)cn1` [Example 55, 4-[4-cyano-2-methyl-6-(1-methylpyrazol-4-yl)indazol-3-yl]-N-[(1R)-2,2-difluorocyclopropyl]-2-(difluoromethoxy)benzamide], the IC50 in experiment [1] was found to be 3.5 nM; in experiment [2], 2.4 nM; in experiment [3] it was 10.4 nM.

For `COCCn1cc(-c2cc(C#N)c3c(-c4cc(OC)c5c(c4)[C@@H](C)CNC5=O)n(C)nc3c2)cn1` (single isomer, unassigned) [Example 127], the IC50 stood at 1.3 nM in experiment [1], 7.6 nM in experiment [2] and 6.9 nM in experiment [3].

With `COc1cc(-c2c3c(OCC[C@H](C)O)cc(-c4cnn(C)c4)cc3nn2C)cc(OC(F)F)c1C(=O)N1CC(O)(C(F)(F)F)C1` [Example 47, [2-(difluoromethoxy)-4-[4-[(3S)-3-hydroxybutoxy]-2-methyl-6-(1-methylpyrazol-4-yl)indazol-3-yl]-6-methoxyphenyl]-[3-hydroxy-3-(trifluoromethyl)azetidin-1-yl]methanone], the IC50 was 16.2 nM in experiment [1], 19.2 nM in experiment [2] and 9 nM in experiment [3].

For `COc1cc(-c2c3c(C#N)cc(-c4cnn(CC(F)F)c4)cc3nn2C)cc(OC(F)F)c1C(=O)N[C@@H]1CC1(F)F` [Example 115, 4-[4-cyano-6-[1-(2,2-difluoroethyl)pyrazol-4-yl]-2-methylindazol-3-yl]-N-[(1R)-2,2-difluorocyclopropyl]-2-(difluoromethoxy)-6-methoxybenzamide], the figures for the IC50 in experiment [1], in experiment [2] and in experiment [3] were 2.4 nM, less than 0.6 nM and 9.4 nM, respectively.

As to `COc1cc(-c2c3c(C#N)cc(-c4cnn(CC5CS(=O)(=O)C5)c4)cc3nn2C)cc(OC(F)F)c1C(=O)NCC1(F)CC1` [Example 74, 4-[4-cyano-6-[1-[(1,1-dioxothietan-3-yl)methyl]pyrazol-4-yl]-2-methylindazol-3-yl]-2-(difluoromethoxy)-N-[(1-fluorocyclopropyl)methyl]-6-methoxybenzamide], the IC50 in experiment [1] stood at 2.6 nM; in experiment [2] it was 6.1 nM; in experiment [3] it was 8.4 nM.

As for `COCCn1cc(-c2cc(C#N)c3c(-c4cc(OC)c(C(N)=O)c(OC(F)F)c4)n(C)nc3c2)cn1` [Example 133, 4-[4-cyano-6-[1-(2-methoxyethyl)pyrazol-4-yl]-2-methylindazol-3-yl]-2-(difluoromethoxy)-6-methoxybenzamide], the concentration for half-maximal inhibition (IC50) turned out to be 2.1 nM in experiment [1], 4.9 nM in experiment [2] and 13.6 nM in experiment [3].

For `COc1cc(-c2c3c(C(F)F)cc(-c4cnn(C)c4)cc3nn2C)cc(OC(F)F)c1C(=O)N[C@@H]1CC1(F)F` [Example 11, N-[(1R)-2,2-difluorocyclopropyl]-2-(difluoromethoxy)-4-[4-(difluoromethyl)-2-methyl-6-(1-methylpyrazol-4-yl)indazol-3-yl]-6-methoxybenzamide], the half-inhibitory concentration (IC50) in experiment [1] came out at 12.3 nM; in experiment [2] it was 2.4 nM; in experiment [3], 9.8 nM.

For the molecule `COc1cc(-c2c3c(C#N)cc(-c4cnn(CCC5(O)CCC5)c4)cc3nn2C)cc(OC(F)F)c1C(=O)N[C@@H]1CC1(F)F` [Example 123, 4-[4-cyano-6-[1-[2-(1-hydroxycyclobutyl)ethyl]pyrazol-4-yl]-2-methylindazol-3-yl]-N-[(1R)-2,2-difluorocyclopropyl]-2-(difluoromethoxy)-6-methoxybenzamide], the concentration for half-maximal inhibition (IC50) in experiment [1] is 1.7 nM; in experiment [2], 0.6 nM; in experiment [3], 4.4 nM.

On to `COc1cc(-c2c3c(C#N)cc(-c4cnn(CC(F)(F)F)c4)cc3nn2C)cc2c1C(=O)NC[C@@H]2C` (single isomer, unassigned) [Example 126], for which the IC50 in experiment [1] came to 1.5 nM; in experiment [2], 5.1 nM; in experiment [3], 7.3 nM.

For `COc1cc(-c2cnn3cc(OCCN4CCOCC4)ccc23)cc2c1C(=O)N(CC(F)(F)F)CC2` [Comparative Example 6, 8-methoxy-6-[6-(2-morpholinoethoxy)pyrazolo[1,5-a]pyridin-3-yl]-2-(2,2,2-trifluoroethyl)-3,4-dihydroisoquinolin-1-one, reference compound], the IC50 in experiment [1] was 102 nM; in experiment [2] it was 42 nM; in experiment [3] it was 5220 nM.

For the molecule `COc1cc(-c2c3c(OCC(F)F)cc(-c4cnn(C)c4)cc3nn2C)cc(OC(F)F)c1C(N)=O` [Example 156, 4-[4-(2,2-difluoroethoxy)-2-methyl-6-(1-methylpyrazol-4-yl)indazol-3-yl]-2-(difluoromethoxy)-6-methoxybenzamide], the IC50 in experiment [1] stood at 0.7 nM; in experiment [2], 2.6 nM; in experiment [3], 4.3 nM.

On to `COc1cc(-c2c3c(C(F)F)cc(-c4cn[nH]c4)cc3nn2C)cc(OC(F)F)c1C(=O)N1CC(O)(C(F)(F)F)C1` [Example 68, [2-(difluoromethoxy)-4-[4-(difluoromethyl)-2-methyl-6-(1H-pyrazol-4-yl)indazol-3-yl]-6-methoxyphenyl]-[3-hydroxy-3-(trifluoromethyl)azetidin-1-yl]methanone], for which the values for the concentration for half-maximal inhibition (IC50) in experiment [1], in experiment [2] and in experiment [3] were 14.2 nM, 2.5 nM and 9.4 nM, respectively.
